Source: patent publication US20150111864A1, “CRYSTALLINE FORM OF A BETA-LACTAMASE INHIBITOR” (Cubist Pharmaceuticals, Inc., priority 2013, published 2015)

Columns and labels:
[1] = test system: Pae.2863 (AmpC de-repress, clinical); test: Standard BLI Potentiation MIC Assay in Combination with Ceftolozane; type: cell-based, Pseudomonas aeruginosa; details: Pseudomonas aeruginosa, read-out: MIC of Ceftolozane, No BLI
Protocol: (§1) The experimental protocol was performed according to Clinical and Laboratory Standards Institute (CLSI) guidelines with modifications as described below (CLSI guidelines can be derived from the CLSI document M07-A9 published in January 2012: “Methods for Dilution Antimicrobial Susceptibility Tests for Bacteria That Grow Aerobically; Approved Standard-Ninth Edition”).
(§2) Frozen glycerol stocks of laboratory engineered, isogenic E. coli strains, which contain cloned β-lactamase expressing plasmids were used to streak for isolated colonies on rich, selective LB agar supplemented with 25 μg/mL tetracycline to maintain the plasmid. All strains were incubated at 37° C. for 18-24 hrs.
(§3) On the day of testing, primary cultures were started by scraping off 5-10 colonies from the TSAB plates containing clinical strains or the tetracycline supplemented LB plates containing engineered strains. The clinical strain material was suspended in ˜5 mL of cation adjusted Mueller Hinton Broth (CAMHB) in 14 mL culture tubes. The engineered strain material was suspended in CAMHB (supplemented with 25 μg/mL tetracycline) in 14 mL culture tubes. All strains were incubated at 37° C. with aeration (200 rpm) for ˜2 hrs until the optical density at 600 nm (OD600) was ≧0.1.
(§4) The two compound components of the assay were each diluted in CAMHB and added to the 96-well broth microdilution assay plates. 50 μL of the β-lactam was added to each well of the assay plate in 2-fold dilutions with final concentrations ranging from 128 to 0.13 μg/mL. 25 μL of the BLI compound was added to all wells in the broth microdilution plates at a final concentration of 4 μg/mL. Inoculum cultures were prepared by standardizing the primary cultures to OD600=0.1 and then adding 20 μL of the adjusted primary culture per 1 mL CAMHB for clinical strains or CAMHB (supplemented with tetracycline at 100 μg/mL) for engineered strains, so that the final inoculum density was ˜10^5 colony forming units per milliliter. Diluted inoculum cultures were used to inoculate 25 μL per well in 96-well broth microdilution assay plates. The final volume of each well was 100 μL and contained a β-lactam at different concentrations, a BLIcompound at 4 μg/mL concentration, the bacterial culture at an OD600 of approximately 0.001 and when necessary tetracycline at 25 μg/mL.
(§5) Plates were incubated for 18-20 hours at 37° C. with aeration (200 rpm). Following incubation, growth was confirmed visually placing plates over a viewing apparatus (stand with a mirror underneath) and then OD600 was measured using a SpectraMax 340PC384 plate reader (Molecular Devices, Sunnyvale, Calif.). Growth was defined as turbidity that could be detected with the naked eye or achieving minimum OD600 of 0.1. MIC values were defined as the lowest concentration producing no visible turbidity.

[2] = test system: Pae.2885 (AmpC, clinical); test: as above; type: cell-based, Pseudomonas aeruginosa; details: Pseudomonas aeruginosa, read-out: MIC of Ceftolozane, No BLI
Protocol: as §1, §2, §3, §4, §5

[3] = test system: Pae.2757 (AmpC over-expn, clinical); test: as above; type: cell-based, Pseudomonas aeruginosa; details: Pseudomonas aeruginosa, read-out: MIC of Ceftolozane, No BLI
Protocol: as §1, §2, §3, §4, §5

[4] = test system: Eco.2845 (OXA-15, isogenic); test: as above; type: cell-based, Escherichia coli; details: Escherichia coli, read-out: MIC of Ceftolozane, No BLI
Protocol: as §1, §2, §3, §4, §5

[5] = test system: Eco.2491 (CMY-2, clinical); test: as above; type: cell-based, Escherichia coli; details: Escherichia coli, read-out: MIC of Ceftolozane, No BLI
Protocol: as §1, §2, §3, §4, §5

[6] = test system: Eco.2843 (DHA-1, isogenic); test: as above; type: cell-based, Escherichia coli; details: Escherichia coli, read-out: MIC of Ceftolozane, No BLI
Protocol: as §1, §2, §3, §4, §5

[7] = test system: Eco.2840 (KPC-4, isogenic); test: as above; type: cell-based; details: Escherichia coli, read-out: MIC of Ceftolozane, No BLI
Protocol: as §1, §2, §3
as §4, with “plates.” for “plates. The final volume of each well was 100 μL and contained a β-lactam at different concentrations, a BLIcompound at 4 μg/mL concentration, the bacterial culture at an OD600 of approximately 0.001 and when necessary tetracycline at 25 μg/mL.”

[8] = test system: Kpn.2926 (CTX-M-15, OXA-48, clinical); test: as above; type: cell-based; details: Klebsiella pneumoniae, read-out: MIC of Ceftolozane, No BLI
Protocol: as §1, §2, §3
as §4, with “plates.” for “plates. The final volume of each well was 100 μL and contained a β-lactam at different concentrations, a BLIcompound at 4 μg/mL concentration, the bacterial culture at an OD600 of approximately 0.001 and when necessary tetracycline at 25 μg/mL.”

[9] = test system: Eco.2781 (KPC-2, TEM+, clinical); test: as above; type: cell-based; details: Escherichia coli, read-out: MIC of Ceftolozane, No BLI
Protocol: as §1, §2, §3
as §4, with “plates.” for “plates. The final volume of each well was 100 μL and contained a β-lactam at different concentrations, a BLIcompound at 4 μg/mL concentration, the bacterial culture at an OD600 of approximately 0.001 and when necessary tetracycline at 25 μg/mL.”

Eco.2711 (KPC, clinical) = test: as above; type: cell-based; details: Escherichia coli, read-out: MIC of Ceftolozane, No BLI
Protocol: as §1, §2, §3
as §4, with “plates.” for “plates. The final volume of each well was 100 μL and contained a β-lactam at different concentrations, a BLIcompound at 4 μg/mL concentration, the bacterial culture at an OD600 of approximately 0.001 and when necessary tetracycline at 25 μg/mL.”

[10] = test system: Kpn.571 (TEM-26, clinical); test: as above; type: cell-based; details: Klebsiella pneumoniae, read-out: MIC of Ceftolozane, No BLI
Protocol: as §1, §2, §3
as §4, with “plates.” for “plates. The final volume of each well was 100 μL and contained a β-lactam at different concentrations, a BLIcompound at 4 μg/mL concentration, the bacterial culture at an OD600 of approximately 0.001 and when necessary tetracycline at 25 μg/mL.”

[11] = test system: Kpn.2490 (KPC-3, SHV+, TEM+, clinical); test: as above; type: cell-based; details: Klebsiella pneumoniae, read-out: MIC of Ceftolozane, No BLI
Protocol: as §1, §2, §3
as §4, with “plates.” for “plates. The final volume of each well was 100 μL and contained a β-lactam at different concentrations, a BLIcompound at 4 μg/mL concentration, the bacterial culture at an OD600 of approximately 0.001 and when necessary tetracycline at 25 μg/mL.”

[12] = test system: Kpn.2917 (KPC-2, SHV+, clinical); test: as above; type: cell-based; details: Klebsiella pneumoniae, read-out: MIC of Ceftolozane, No BLI
Protocol: as §1, §2, §3
as §4, with “plates.” for “plates. The final volume of each well was 100 μL and contained a β-lactam at different concentrations, a BLIcompound at 4 μg/mL concentration, the bacterial culture at an OD600 of approximately 0.001 and when necessary tetracycline at 25 μg/mL.”

[13] = test system: Pae.2808 (KPC-2, clinical); test: as above; type: cell-based; details: Pseudomonas aeruginosa, read-out: MIC of Ceftolozane, No BLI
Protocol: as §1, §2, §3
as §4, with “plates.” for “plates. The final volume of each well was 100 μL and contained a β-lactam at different concentrations, a BLIcompound at 4 μg/mL concentration, the bacterial culture at an OD600 of approximately 0.001 and when necessary tetracycline at 25 μg/mL.”

[14] = test system: Kpn.2478 (KPC-3, TEM+, clinical); test: as above; type: cell-based; details: Klebsiella pneumoniae, read-out: MIC of Ceftolozane, No BLI
Protocol: as §1, §2, §3
as §4, with “plates.” for “plates. The final volume of each well was 100 μL and contained a β-lactam at different concentrations, a BLIcompound at 4 μg/mL concentration, the bacterial culture at an OD600 of approximately 0.001 and when necessary tetracycline at 25 μg/mL.”

[15] = test system: Eco.2806 (KPC-2, isogenic); test: as above; type: cell-based; details: Escherichia coli, read-out: MIC of Ceftolozane, No BLI
Protocol: as §1, §2, §3
as §4, with “plates.” for “plates. The final volume of each well was 100 μL and contained a β-lactam at different concentrations, a BLIcompound at 4 μg/mL concentration, the bacterial culture at an OD600 of approximately 0.001 and when necessary tetracycline at 25 μg/mL.”

[16] = test system: Kpn.2783 (CTX-M-15, SHV+, TEM+, clinical); test: as above; type: cell-based; details: Klebsiella pneumoniae, read-out: MIC of Ceftolozane, No BLI
Protocol: as §1, §2, §3
as §4, with “plates.” for “plates. The final volume of each well was 100 μL and contained a β-lactam at different concentrations, a BLIcompound at 4 μg/mL concentration, the bacterial culture at an OD600 of approximately 0.001 and when necessary tetracycline at 25 μg/mL.”

[17] = test system: Kpn.2909 (KPC-3, SHV+, TEM+, clinical); test: as above; type: cell-based; details: Klebsiella pneumoniae, read-out: MIC of Ceftolozane, No BLI
Protocol: as §1, §2, §3
as §4, with “plates.” for “plates. The final volume of each well was 100 μL and contained a β-lactam at different concentrations, a BLIcompound at 4 μg/mL concentration, the bacterial culture at an OD600 of approximately 0.001 and when necessary tetracycline at 25 μg/mL.”

[18] = test system: Kpn.2914 (KPC-2, SHV+, clinical); test: as above; type: cell-based; details: Klebsiella pneumoniae, read-out: MIC of Ceftolozane, No BLI
Protocol: as §1, §2, §3
as §4, with “plates.” for “plates. The final volume of each well was 100 μL and contained a β-lactam at different concentrations, a BLIcompound at 4 μg/mL concentration, the bacterial culture at an OD600 of approximately 0.001 and when necessary tetracycline at 25 μg/mL.”

[19] = test system: Kpn.2913 (KPC-2, SHV+, clinical); test: as above; type: cell-based; details: Klebsiella pneumoniae, read-out: MIC of Ceftolozane, No BLI
Protocol: as §1, §2, §3
as §4, with “plates.” for “plates. The final volume of each well was 100 μL and contained a β-lactam at different concentrations, a BLIcompound at 4 μg/mL concentration, the bacterial culture at an OD600 of approximately 0.001 and when necessary tetracycline at 25 μg/mL.”

[20] = test system: Kpn.2918 (KPC-3, SHV+, TEM+, clinical); test: as above; type: cell-based; details: Klebsiella pneumoniae, read-out: MIC of Ceftolozane, No BLI
Protocol: as §1, §2, §3
as §4, with “plates.” for “plates. The final volume of each well was 100 μL and contained a β-lactam at different concentrations, a BLIcompound at 4 μg/mL concentration, the bacterial culture at an OD600 of approximately 0.001 and when necessary tetracycline at 25 μg/mL.”

Cfr.568 (AmpC, clinical) = test: as above; type: cell-based, Citrobacter spp; details: Citrobacter, read-out: MIC of Ceftolozane, No BLI
Protocol: as §1, §2
(§6) On the day of testing, primary cultures were started by scraping off 5-10 colonies from the TSAB plates containing clinical strains or the tetracycline supplemented LB plates containing engineered strains. […]
as §5, with “MIC values were defined as the lowest concentration producing no visible turbidity.” left out

[21] = test system: Eco.2902 (Aba-ADC-33, isogenic); test: as above; type: cell-based; details: Escherichia coli, read-out: MIC of Ceftolozane, No BLI
Protocol: as §1, §2, §6
as §5, with “MIC values were defined as the lowest concentration producing no visible turbidity.” left out

[22] = test system: Panel of Isogenic and Clinical Strains Expressing β-Lactamases; test: Standard BLI Potentiation MIC Assay in Combination with Ceftolozane, whole panel; type: cell-based; details: panel of 24 strains; no BLI
Protocol: as §1, §2, §3, §4
as §5, with “MIC values were defined as the lowest concentration producing no visible turbidity.” left out

Ecl.569 (AmpC, clinical) = test: Standard BLI Potentiation MIC Assay in Combination with Ceftolozane; type: cell-based, Enterobacter spp; details: Enterobacter, read-out: MIC of Ceftolozane, No BLI
Protocol: as §1, §2, §6
as §5, with “MIC values were defined as the lowest concentration producing no visible turbidity.” left out

Cn1c(N)c(NC(=O)NCCN)c[n+]1CC1=C(C(=O)O)N2C(=O)[C@@H](NC(=O)/C(=N\OC(C)(C)C(=O)[O-])c3nsc(N)n3)[C@H]2SC1 [Ceftolozane]
MIC [1]: 4 to 8 µg/mL | MIC [2]: 1 to 2 µg/mL | MIC [3]: 4 to 8 µg/mL | MIC [4]: > 64 µg/mL | MIC [5]: 16 to 32 µg/mL | MIC [6]: > 64 µg/mL | MIC [7]: > 64 µg/mL | MIC [8]: > 64 µg/mL | MIC [9]: 4 to 8 µg/mL | MIC (Eco.2711 (KPC, clinical)): 16 to 32 µg/mL | MIC [10]: 16 to 32 µg/mL | MIC [11]: > 64 µg/mL | MIC [12]: 16 to 32 µg/mL | MIC [13]: > 64 µg/mL | MIC [14]: > 64 µg/mL | MIC [15]: > 64 µg/mL | MIC [16]: > 64 µg/mL | MIC [17]: > 64 µg/mL | MIC [18]: 16 to 32 µg/mL | MIC [19]: 16 to 32 µg/mL | MIC [20]: > 64 µg/mL | MIC (Cfr.568 (AmpC, clinical)): > 64 µg/mL | MIC [21]: > 64 µg/mL | MIC50 [22]: > 64 µg/mL | MIC90 [22]: > 64 µg/mL | MIC (Ecl.569 (AmpC, clinical)): > 64 µg/mL
